Experiments:
[1] = molecular target: Plasminogen activator inhibitor 1 (Homo sapiens, UniProt P05121); test: Inhibitory concentration against plasminogen activator inhibitor-1 (PAI-1)
[2] = Maximal concentration in rats after peroral administration; format: ADME, organism-based; set-up: route oral; conditions: rat, in vivo, po
[3] = Bioavailability in rat; format: ADME, organism-based; conditions: in vivo
[4] = Half-life period of compound in rats after peroral administration; format: ADME, organism-based; conditions: rat, in vivo, po
[5] = […] of compound in rats after peroral administration; format: ADME, organism-based; conditions: rat, in vivo, po
[6] = Volume of distribution of compound in rats after intravenous administration; format: ADME, organism-based; conditions: rat, in vivo, read-out: Vdss
[7] = Clearance of compound in rats after intravenous administration; format: ADME, organism-based; conditions: rat, in vivo

Chain of Plasminogen activator inhibitor 1 (P05121 whole entry): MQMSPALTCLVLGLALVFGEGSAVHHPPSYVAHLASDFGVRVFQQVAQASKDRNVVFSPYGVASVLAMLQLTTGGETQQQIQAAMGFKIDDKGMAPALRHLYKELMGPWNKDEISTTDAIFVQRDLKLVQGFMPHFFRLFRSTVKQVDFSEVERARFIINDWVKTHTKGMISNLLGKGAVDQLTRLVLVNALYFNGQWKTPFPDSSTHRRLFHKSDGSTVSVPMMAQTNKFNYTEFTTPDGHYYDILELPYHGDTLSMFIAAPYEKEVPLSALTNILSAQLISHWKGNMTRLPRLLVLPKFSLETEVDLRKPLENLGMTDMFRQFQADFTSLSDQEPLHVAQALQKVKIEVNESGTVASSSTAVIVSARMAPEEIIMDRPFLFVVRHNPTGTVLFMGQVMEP

SMILES | IC50 [1] [nM] | also measured
O=C(O)c1ccc(CNc2ccc([N+](=O)[O-])c(N3CCN(c4cccc(C(F)(F)F)c4)CC3)c2)cc1 | 6700 | –
O=C(O)c1ccc(Oc2cc(N3CCN(c4cccc(C(F)(F)F)c4)CC3)c([N+](=O)[O-])cc2C(F)(F)F)cc1 | 2100 | –
O=C(O)c1cccc(Oc2cc(N3CCN(c4cccc(C(F)(F)F)c4)CC3)c([N+](=O)[O-])cc2C(F)(F)F)c1 | 3700 | –
O=C(O)c1ccccc1Oc1ccc([N+](=O)[O-])cc1CNc1ccc(N2CCN(c3cccc(C(F)(F)F)c3)CC2)c(C(F)(F)F)c1 | 1000 | –
O=C(O)C1CCN(c2cc(N3CCN(c4ccc(C(F)(F)F)cc4)CC3)c([N+](=O)[O-])cc2C(F)(F)F)CC1 | 1100 | –
O=C(O)C1CCN(c2cc(N3CCN(c4ccc(C(F)(F)F)cn4)CC3)c([N+](=O)[O-])cc2C(F)(F)F)CC1 | 3200 | –
CC(C)[C@@H]1CC[C@@H](C)C[C@H]1OCC(=O)N1CCN(c2cc(N3CCC(C(=O)O)CC3)c(C(F)(F)F)cc2[N+](=O)[O-])CC1 | > 15000 | –
O=C(O)CCNc1cc(N2CCN(c3cccc(C(F)(F)F)c3)CC2)c([N+](=O)[O-])cc1C(F)(F)F | 900 | –
O=C(O)C1CCN(c2cc(N3CCN(C(=O)c4cccc(C(F)(F)F)c4)CC3)c([N+](=O)[O-])cc2C(F)(F)F)CC1 | 5000 | –
O=C(O)C1CCN(c2cc(N3CCN(Cc4cccc(C(F)(F)F)c4)CC3)c([N+](=O)[O-])cc2C(F)(F)F)CC1 | 4300 | –
O=C(O)C1CCN(c2cccc(F)c2CNc2ccc(N3CCN(c4cccc(C(F)(F)F)c4)CC3)c(C(F)(F)F)c2)CC1 | 1000 | –
O=C(O)c1ccc(CNc2ccc(N3CCN(c4cccc(C(F)(F)F)c4)CC3)c(C(F)(F)F)c2)cc1 | 1700 | –
O=C(O)C1CCN(c2cc(N3CCN(C(=O)Nc4cccc(C(F)(F)F)c4)CC3)c([N+](=O)[O-])cc2C(F)(F)F)CC1 | 3500 | –
O=C(O)c1ccc(CNc2nc(N3CCN(c4cccc(C(F)(F)F)c4)CC3)ccc2[N+](=O)[O-])cc1 | 3400 | –
O=C(O)C1CCN(c2cccc(C(F)(F)F)c2CNc2ccc(N3CCN(c4cccc(C(F)(F)F)c4)CC3)c(C(F)(F)F)c2)CC1 | 1700 | –
O=C(O)c1ccc(CNc2cc(N3CCN(c4cccc(C(F)(F)F)c4)CC3)c([N+](=O)[O-])cc2[N+](=O)[O-])cc1 | 1400 | –
O=C(O)c1ccc(CNc2ccc([N+](=O)[O-])c(N3CCN(c4cccc(C(F)(F)F)c4)CC3)n2)cc1 | 6100 | –

SMILES | IC50 [1] [nM] | also measured
O=C(O)C1CCCN1c1c([N+](=O)[O-])ccc(F)c1CNc1ccc(N2CCN(c3cccc(C(F)(F)F)c3)CC2)c(C(F)(F)F)c1 (stereo not given) | 1400 | –
O=[N+]([O-])c1cc(C(F)(F)F)c(N2CCN(c3cccc(C(F)(F)F)c3)CC2)cc1NC[P+]([O-])(O)O | 1800 | –
O=C(O)C1CCCN(c2cc(N3CCN(c4cccc(C(F)(F)F)c4)CC3)c([N+](=O)[O-])cc2C(F)(F)F)C1 (stereo not given) | 2800 | –
COc1cccc(CNc2ccc(N3CCN(c4cccc(C(F)(F)F)c4)CC3)c(C(F)(F)F)c2)c1Oc1ccc([N+](=O)[O-])cc1C(=O)O | 500 | Cmax [2]: 480 nM; bioavailability [3]: 43%; half-life [4]: 2.8 h; Tmax [5]: 3 h; Vd [6]: 1.33 L/kg; clearance [7]: 10.4 mL/min/kg
COc1cccc(CNc2ccc(N3CCN(c4cccc(C(F)(F)F)c4)CC3)c(C(F)(F)F)c2)c1Oc1ccc(C(=O)O)cn1 | 900 | –
COc1cccc(CNc2ccc(N3CCN(c4cccc(C(F)(F)F)c4)CC3)c(C(F)(F)F)c2)c1Oc1c(C(=O)O)cc(Cl)cc1[N+](=O)[O-] | 900 | –
O=C(O)c1ccc(CNc2cc(N3CCN(c4cccc(C(F)(F)F)c4)CC3)c([N+](=O)[O-])cc2C(F)(F)F)cc1 | 1500 | –
O=C(O)C1CCCN(c2cccc(F)c2CNc2ccc(N3CCN(c4cccc(C(F)(F)F)c4)CC3)c(C(F)(F)F)c2)C1 (stereo not given) | 1700 | –
COC(=O)c1c(NCc2ccc(C(=O)O)cc2)ccc([N+](=O)[O-])c1N1CCN(c2cccc(C(F)(F)F)c2)CC1 | > 15000 | –
O=C(O)C1CCN(c2c([N+](=O)[O-])ccc(F)c2CNc2ccc(N3CCN(c4cccc(C(F)(F)F)c4)CC3)c(C(F)(F)F)c2)CC1 | 700 | –
O=C(O)C1CCCN1c1cc(N2CCN(c3cccc(C(F)(F)F)c3)CC2)c([N+](=O)[O-])cc1C(F)(F)F (stereo not given) | 7900 | –
O=C(O)c1cc(Br)ccc1Oc1cccc(F)c1CNc1ccc(N2CCN(c3cccc(C(F)(F)F)c3)CC2)c(C(F)(F)F)c1 | 800 | –
O=C(O)C1CCN(c2cc(N3CCN(c4cccc(C(F)(F)F)c4)CC3)c([N+](=O)[O-])cc2C(F)(F)F)CC1 | 910 | –
O=C(O)C1CCN(c2cc(N3CCN(c4c([N+](=O)[O-])ccc(C(F)(F)F)c4[N+](=O)[O-])CC3)c([N+](=O)[O-])cc2C(F)(F)F)CC1 | > 15000 | –
CC(C)[C@@H]1CC[C@@H](C)C[C@H]1OCC(=O)Nc1cc(Oc2ccc(C(=O)O)cc2)ccc1[N+](=O)[O-] | – | Cmax [2]: 160 nM; bioavailability [3]: 23%; half-life [4]: 3 h; Tmax [5]: 3 h; Vd [6]: 0.4 L/kg; clearance [7]: 4.84 mL/min/kg
O=C(O)c1ccc(CNc2cc(N3CCN(c4cccc(C(F)(F)F)c4)CC3)ccc2[N+](=O)[O-])cc1 | 2800 | –
O=C(O)C1CCN(c2cc(N3CCN(c4cccc(C(F)(F)F)c4)CC3)c(C(F)(F)F)cc2[N+](=O)[O-])CC1 | 880 | –

— ChEMBL document CHEMBL1138693, “Synthesis and biological evaluation of piperazine-based derivatives as inhibitors of plasminogen activator inhibitor-1 (PAI-1)” (Bioorg Med Chem Lett, 2004)
